Experimental data: patent US12630547B2, “RAS protein degraders, pharmaceutical compositions thereof, and their therapeutic applications” (BioTheryX, Inc., priority 2019, dated 2026)

Tests used:
Assay type in all cases: cell-based
H358 cells = assay: Cell viability assay (CELLTITER-GLO), H358 cells; settings: Table 4; 3 days
How it was run: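 H358 cells (RPMI 1640, 10% FBS), 4,000 per well, exposed to compound for 3 days at 37 °C, 5% CO2; viability by CellTiter-Glo luminescence. Single-dose viability as % DMSO at 10 or 1 μM, binned A (<10%) to D (≥50%); IC50 binned A (≤1 μM) to D (>10 μM).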

MOLM-13 cells = assay: Cell viability assay (CELLTITER-GLO), MOLM-13 cells; settings: Homo sapiens, MOLM-13, 72 h; Table 2; compound at 10 μM, 3 days; read-out: Effect on MOLM-13 cell viability (% DMSO)
How it was run: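 MV-4-11 and MOLM-13 cells in RPMI 1640/10% FBS were seeded at 4,000 cells/well and exposed to compound (10 μM or 1 μM) or DMSO for 3 days at 37 °C, 5% CO2. CellTiter-Glo luminescence gave viability as % DMSO, binned into ranges A (<10%) through D (≥50%).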

H23 cells = assay: Cell viability assay (CELLTITER-GLO), H23 cells; settings: Table 4; 3 days
How it was run: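 H23 cells in RPMI 1640 with 10% FBS, 4,000 cells/well, exposed to compound or DMSO for 3 days at 37° C, 5% CO2. Viability read by CellTiter-Glo luminescence after 10 min. IC50 reported in potency bins.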

Inhibition of H358 cells, IC50 (class) (H358 cells) | Structure (SMILES) | viability at 10 µM (MOLM-13 cells) [%] | Inhibition of H23 cells, IC50 (class) (H23 cells)
B′ | C=C(F)C(=O)N1CCN(c2ncnc3c(F)c(-c4c(F)cccc4OCCCCCCCN4CCC(c5cc(F)cc6c5CN(C5CCC(=O)NC5=O)C6=O)CC4)c(Cl)cc23)CC1 (stereo not drawn) [Compound 82, 3-(4-(1-(7-(2-(6-Chloro-8-fluoro-4-(4-(2-fluoroacryloyl)piperazin-1-yl)quinazolin-7-yl)-3-fluorophenoxy)heptyl)piperidin-4-yl)-6-fluoro-1-oxoisoindolin-2-yl)piperidine-2,6-dione] | < 10 | B′
B′ | NC(=O)N1CCN(c2ncnc3c(F)c(-c4c(F)cccc4OCCCCCCCN4CCC(c5cc(F)cc6c5CN(C5CCC(=O)NC5=O)C6=O)CC4)c(Cl)cc23)CC1 (stereo not drawn) [Compound 83, 4-(6-Chloro-7-(2-((7-(4-(2-(2,6-dioxopiperidin-3-yl)-6-fluoro-1-oxoisoindolin-4-yl)piperidin-1-yl)heptyl)oxy)-6-fluorophenyl)-8-fluoroquinazolin-4-yl)piperazine-1-carboxamide] | < 10 | B′
B′ | CCC(=O)N1CCN(c2ncnc3c(F)c(-c4c(F)cccc4OCCCCCCCN4CCCC(c5cc(F)cc6c5CN(C5CCC(=O)NC5=O)C6=O)C4)c(Cl)cc23)CC1 (stereo not drawn) [Compound 87, 3-(4-(1-(7-(2-(6-Chloro-8-fluoro-4-(4-propionylpiperazin-1-yl)quinazolin-7-yl)-3-fluorophenoxy)heptyl)piperidin-3-yl)-6-fluoro-1-oxoisoindolin-2-yl)piperidine-2,6-dione] | < 10 | B′
B′ | C/C=C(\Cl)C(=O)N1CCN(c2ncnc3c(F)c(-c4c(F)cccc4OCCCCCCCN4CCC(c5cc(F)cc6c5CN(C5CCC(=O)NC5=O)C6=O)CC4)c(Cl)cc23)CC1 (stereo not drawn) [Compound 96, (Z)-3-(4-(1-(7-(2-(6-Chloro-4-(4-(2-chlorobut-2-enoyl)piperazin-1-yl)-8-fluoroquinazolin-7-yl)-3-fluorophenoxy)heptyl)piperidin-4-yl)-6-fluoro-1-oxoisoindolin-2-yl)piperidine-2,6-dione] | < 10 | B′
B′ | CC(C)/C=C(\Cl)C(=O)N1CCN(c2ncnc3c(F)c(-c4c(F)cccc4OCCCCCCCN4CCC(c5cc(F)cc6c5CN(C5CCC(=O)NC5=O)C6=O)CC4)c(Cl)cc23)CC1 (stereo not drawn) [Compound 97, (Z)-3-(4-(1-(7-(2-(6-Chloro-4-(4-(2-chloro-4-methylpent-2-enoyl)piperazin-1-yl)-8-fluoroquinazolin-7-yl)-3-fluorophenoxy)heptyl)piperidin-4-yl)-6-fluoro-1-oxoisoindolin-2-yl)piperidine-2,6-dione] | < 10 | B′
B′ | CC/C=C(\Cl)C(=O)N1CCN(c2ncnc3c(F)c(-c4c(F)cccc4OCCCCCCCN4CCC(c5cc(F)cc6c5CN(C5CCC(=O)NC5=O)C6=O)CC4)c(Cl)cc23)CC1 (stereo not drawn) [Compound 98, (Z)-3-(4-(1-(7-(2-(6-Chloro-4-(4-(2-chloropent-2-enoyl)piperazin-1-yl)-8-fluoroquinazolin-7-yl)-3-fluorophenoxy)heptyl)piperidin-4-yl)-6-fluoro-1-oxoisoindolin-2-yl)piperidine-2,6-dione] | 25 to 50 | B′

The next lines start with the compound.

Structure (SMILES) | Inhibition of H358 cells, IC50 (class) (H358 cells) | viability at 10 µM (MOLM-13 cells) [%] | Inhibition of H23 cells, IC50 (class) (H23 cells)
CCC(=O)N1CCN(c2ncnc3c(F)c(-c4c(F)cccc4OCCC4CCC(CCN5CCC(c6cc(F)cc7c6CN(C6CCC(=O)NC6=O)C7=O)CC5)CC4)c(Cl)cc23)CC1 (stereo not drawn) [Compound 84, 3-(4-(1-(2-(4-(2-(2-(6-Chloro-8-fluoro-4-(4-propionylpiperazin-1-yl)quinazolin-7-yl)-3-fluorophenoxy)ethyl)cyclohexyl)ethyl)piperidin-4-yl)-6-fluoro-1-oxoisoindolin-2-yl)piperidine-2,6-dione] | B′ | < 10 | B′
CCC(=O)N1CCN(c2ncnc3c(F)c(-c4c(F)cccc4OCCCCCCCN4CCC(c5cc(F)cc6c5CN(C5CCC(=O)NC5=O)C6=O)CC4)c(Cl)cc23)[C@@H](C)C1 (stereo partly drawn) [Compound 85, 3-(4-(1-(7-(2-(6-Chloro-8-fluoro-4-((S)-2-methyl-4-propionylpiperazin-1-yl)quinazolin-7-yl)-3-fluorophenoxy)heptyl)piperidin-4-yl)-6-fluoro-1-oxoisoindolin-2-yl)piperidine-2,6-dione] | B′ | < 10 | B′
C=CC(=O)N1CCN(c2nc(OC[C@@H]3CCCN3C)nc3c(F)c(-c4c(F)cccc4OCCCCCCCN4CCC(c5cc(F)cc6c5CN(C5CCC(=O)NC5=O)C6=O)CC4)c(Cl)cc23)CC1 (stereo partly drawn) [Compound 88, 3-(4-(1-(7-(2-(4-(4-Acryloylpiperazin-1-yl)-6-chloro-8-fluoro-2-(((S)-1-methylpyrrolidin-2-yl)methoxy)quinazolin-7-yl)-3-fluorophenoxy)heptyl)piperidin-4-yl)-6-fluoro-1-oxoisoindolin-2-yl)piperidine-2,6-dione] | A′ | < 10 | B′
CCC(=O)N1CCN(c2nc(OC[C@@H]3CCCN3C)nc3c(F)c(-c4c(F)cccc4OCCCCCCCN4CCC(c5cc(F)cc6c5CN(C5CCC(=O)NC5=O)C6=O)CC4)c(Cl)cc23)CC1 (stereo partly drawn) [Compound 89, 3-(4-(1-(7-(2-(6-Chloro-8-fluoro-2-(((S)-1-methylpyrrolidin-2-yl)methoxy)-4-(4-propionylpiperazin-1-yl)quinazolin-7-yl)-3-fluorophenoxy)heptyl)piperidin-4-yl)-6-fluoro-1-oxoisoindolin-2-yl)piperidine-2,6-dione] | B′ | < 10 | B′
C=CC(=O)N1CCN(c2ncnc3c(F)c(-c4cc(OCCCCCCCN5CCC(c6cc(F)cc7c6CN(C6CCC(=O)NC6=O)C7=O)CC5)ccc4F)c(Cl)cc23)CC1 (stereo not drawn) [Compound 90, 3-(4-(1-(7-(3-(4-(4-Acryloylpiperazin-1-yl)-6-chloro-8-fluoroquinazolin-7-yl)-4-fluorophenoxy)heptyl)piperidin-4-yl)-6-fluoro-1-oxoisoindolin-2-yl)piperidine-2,6-dione] | B′ | < 10 | B′
CCC(=O)N1CCN(c2ncnc3c(F)c(-c4cc(OCCCCCCCN5CCC(c6cc(F)cc7c6CN(C6CCC(=O)NC6=O)C7=O)CC5)ccc4F)c(Cl)cc23)CC1 (stereo not drawn) [Compound 91, 3-(4-(1-(7-(3-(6-Chloro-8-fluoro-4-(4-propionylpiperazin-1-yl)quinazolin-7-yl)-4-fluorophenoxy)heptyl)piperidin-4-yl)-6-fluoro-1-oxoisoindolin-2-yl)piperidine-2,6-dione] | B′ | < 10 | B′
CCC(=O)N1CCN(c2ncnc3c(F)c(-c4c(F)cccc4OCCc4cn(CCN5CCC(c6cc(F)cc7c6CN(C6CCC(=O)NC6=O)C7=O)CC5)nn4)c(Cl)cc23)CC1 (stereo not drawn) [Compound 92, 3-(4-(1-(2-(4-(2-(2-(6-Chloro-8-fluoro-4-(4-propionylpiperazin-1-yl)quinazolin-7-yl)-3-fluorophenoxy)ethyl)-1H-1,2,3-triazol-1-yl)ethyl)piperidin-4-yl)-6-fluoro-1-oxoisoindolin-2-yl)piperidine-2,6-dione] | C′ | ≥ 50 | D′
CCC(=O)N1CCN(c2ncnc3c(F)c(-c4c(F)cccc4OCCCCCCCN4CCC(c5cc6c(cc5F)C(=O)N(C5CCC(=O)NC5=O)C6)CC4)c(Cl)cc23)CC1 (stereo not drawn) [Compound 93, 3-(5-(1-(7-(2-(6-Chloro-8-fluoro-4-(4-propionylpiperazin-1-yl)quinazolin-7-yl)-3-fluorophenoxy)heptyl)piperidin-4-yl)-6-fluoro-1-oxoisoindolin-2-yl)piperidine-2,6-dione] | B′ | < 10 | B′
C=CC(=O)N1CCN(c2ncnc3c(F)c(-c4c(F)cccc4OCCCCCCCN4CCC(c5cc6c(cc5F)C(=O)N(C5CCC(=O)NC5=O)C6)CC4)c(Cl)cc23)CC1 (stereo not drawn) [Compound 94, 3-(5-(1-(7-(2-(4-(4-Acryloylpiperazin-1-yl)-6-chloro-8-fluoroquinazolin-7-yl)-3-fluorophenoxy)heptyl)piperidin-4-yl)-6-fluoro-1-oxoisoindolin-2-yl)piperidine-2,6-dione] | B′ | < 10 | B′
CCC(=O)Oc1cccc(F)c1-c1c(Cl)cc2c3c(cnc2c1F)N(CCCCCCCN1CCC(c2cc(F)cc4c2CN(C2CCC(=O)NC2=O)C4=O)CC1)C(=O)[C@H]1CN(C(=O)CC)[C@H](C)CN31 (stereo partly drawn) [Compound 95, 2-((2R,4aR)-11-Chloro-6-(7-(4-(2-(2,6-dioxopiperidin-3-yl)-6-fluoro-1-oxoisoindolin-4-yl)piperidin-1-yl)heptyl)-9-fluoro-2-methyl-5-oxo-3-propionyl-2,3,4,4a,5,6-hexahydro-1H-pyrazino[1′,2′:4,5]pyrazino[2,3-c]quinolin-10-yl)-3-fluorophenyl propionate] | B′ | < 10 | B′
